Results from US20250154144A1 (CHILDREN'S HOSPITAL MEDICAL CENTER, priority 2021, published 2025).
Positions count from the first letter of the chain named.

Assays:
[1] = biological target: IRAK1 (Homo sapiens, UniProt P51617); experiment: DiscoverX KINOMEscan competition binding, IRAK1; parameters: purchased RBC (Reaction Biology) HotSpot assay
[2] = biological target: T1, FLT3 (Homo sapiens, UniProt P36888); experiment: DiscoverX KINOMEscan competition binding, FLT3; parameters: using full-length kinases in the presence of cellular concentrations of ATP in live, uncompromised cells
T1 sequence (P36888 27-993): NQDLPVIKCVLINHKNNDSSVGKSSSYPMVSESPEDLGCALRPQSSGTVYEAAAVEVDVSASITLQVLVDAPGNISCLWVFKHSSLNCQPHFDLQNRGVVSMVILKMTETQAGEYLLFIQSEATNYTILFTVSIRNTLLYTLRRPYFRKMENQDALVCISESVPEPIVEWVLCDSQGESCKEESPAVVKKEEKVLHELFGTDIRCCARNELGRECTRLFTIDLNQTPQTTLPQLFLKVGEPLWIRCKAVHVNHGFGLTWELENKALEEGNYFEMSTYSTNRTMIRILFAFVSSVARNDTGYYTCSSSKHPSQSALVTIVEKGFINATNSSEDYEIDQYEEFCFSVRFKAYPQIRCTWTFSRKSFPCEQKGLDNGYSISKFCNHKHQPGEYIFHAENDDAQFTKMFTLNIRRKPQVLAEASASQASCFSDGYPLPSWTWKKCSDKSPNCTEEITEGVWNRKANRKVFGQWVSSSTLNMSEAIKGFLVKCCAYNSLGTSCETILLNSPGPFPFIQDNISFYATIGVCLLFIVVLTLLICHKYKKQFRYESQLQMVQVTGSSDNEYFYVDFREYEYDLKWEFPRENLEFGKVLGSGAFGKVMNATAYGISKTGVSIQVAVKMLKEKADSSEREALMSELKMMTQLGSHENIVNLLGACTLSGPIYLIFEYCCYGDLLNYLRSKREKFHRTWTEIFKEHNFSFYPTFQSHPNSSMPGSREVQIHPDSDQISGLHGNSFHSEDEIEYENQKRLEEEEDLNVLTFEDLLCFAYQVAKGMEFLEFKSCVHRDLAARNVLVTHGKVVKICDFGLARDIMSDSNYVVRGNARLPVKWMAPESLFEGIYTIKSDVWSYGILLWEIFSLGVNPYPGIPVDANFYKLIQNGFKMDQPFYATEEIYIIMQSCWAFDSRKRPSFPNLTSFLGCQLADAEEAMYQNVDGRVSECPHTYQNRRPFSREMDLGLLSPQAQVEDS

[3] = biological target: T2, IRAK4 (Homo sapiens, UniProt Q9NWZ3); experiment: RBC HotSpot Kinase Assay, IRAK4; settings: IRAK4 IC50
T2 sequence (Q9NWZ3 1-460): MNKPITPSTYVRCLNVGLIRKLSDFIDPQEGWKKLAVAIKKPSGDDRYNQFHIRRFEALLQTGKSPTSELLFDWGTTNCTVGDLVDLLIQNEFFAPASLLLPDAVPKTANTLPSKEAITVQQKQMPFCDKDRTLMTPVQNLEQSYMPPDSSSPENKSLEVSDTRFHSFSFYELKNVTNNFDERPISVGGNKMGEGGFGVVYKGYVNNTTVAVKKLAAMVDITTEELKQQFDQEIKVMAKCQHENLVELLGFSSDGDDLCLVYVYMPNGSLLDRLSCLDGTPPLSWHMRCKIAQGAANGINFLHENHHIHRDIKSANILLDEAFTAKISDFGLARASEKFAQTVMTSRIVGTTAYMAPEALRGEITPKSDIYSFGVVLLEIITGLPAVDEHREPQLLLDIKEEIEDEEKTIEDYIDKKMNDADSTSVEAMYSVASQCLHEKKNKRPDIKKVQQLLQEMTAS

[4] = biological target: T3, FLT3 D835V (Homo sapiens, UniProt P36888, D835V); experiment: DiscoverX KINOMEscan competition binding, FLT3 D835V
T3 construct: purchased DiscoverX (KINOMEscan)
T3 sequence (P36888 27-993 D835V): T1 sequence (P36888 27-993) with D809V

Chain of IRAK1 (P51617 whole entry): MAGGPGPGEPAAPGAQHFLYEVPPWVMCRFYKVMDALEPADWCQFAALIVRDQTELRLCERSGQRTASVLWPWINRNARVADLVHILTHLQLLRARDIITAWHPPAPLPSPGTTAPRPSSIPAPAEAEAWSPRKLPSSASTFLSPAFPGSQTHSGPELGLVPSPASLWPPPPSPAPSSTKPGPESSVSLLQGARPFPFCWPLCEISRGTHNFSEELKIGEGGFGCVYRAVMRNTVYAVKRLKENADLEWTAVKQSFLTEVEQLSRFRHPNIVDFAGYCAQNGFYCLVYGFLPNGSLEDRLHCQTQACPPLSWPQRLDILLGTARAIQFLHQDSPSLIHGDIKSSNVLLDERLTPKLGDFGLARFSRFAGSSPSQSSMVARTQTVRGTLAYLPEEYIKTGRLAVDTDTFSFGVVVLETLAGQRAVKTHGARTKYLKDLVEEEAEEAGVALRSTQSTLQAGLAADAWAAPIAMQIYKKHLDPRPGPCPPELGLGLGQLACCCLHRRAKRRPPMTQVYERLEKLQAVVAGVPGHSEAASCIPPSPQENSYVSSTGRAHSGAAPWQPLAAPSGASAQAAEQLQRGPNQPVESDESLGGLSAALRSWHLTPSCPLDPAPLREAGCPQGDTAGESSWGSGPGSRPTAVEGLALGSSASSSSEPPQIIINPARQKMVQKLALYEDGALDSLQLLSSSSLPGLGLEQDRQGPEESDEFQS

| SMILES | Kd [1] [nM] | Kd [2] [nM] | IC50 [3] [nM] | Kd [4] [nM] |
| --- | --- | --- | --- | --- |
| CC(O)(c1cn2c(-c3ccnc(N[C@H]4CNCC[C@@H]4F)n3)cnc2cn1)C(F)(F)F (single isomer, unassigned) [Compound 72] | 1.5 | 5.2 | 0.7 | 0.47 |
| F[C@H]1CCNC[C@@H]1Nc1cncc(-c2cnc3cc(OC4CC4)ccn23)n1 [Compound 12, 6-(7-cyclopropoxyimidazo[1,2-a]pyridin-3-yl)-N-((3S,4S)-4-fluoropiperidin-3-yl)pyrazin-2-amine] | 7.5 | 1.9 | 2 | 0.16 |
| COc1cc2ncc(-c3cncc(N[C@H]4CNC[C@@H]4F)n3)n2nc1C1CC1 [Compound 22, 6-(6-cyclopropyl-7-methoxyimidazo[1,2-b]pyridazin-3-yl)-N-((3S,4S)-4-fluoropyrrolidin-3-yl)pyrazin-2-amine] | 6.4 | 1.8 | 1 | 0.15 |
| COc1cc2ncc(-c3cncc(N[C@H]4CNCC[C@@H]4F)n3)n2nc1C1CC1 [Compound 24, 6-(6-cyclopropyl-7-methoxyimidazo[1,2-b]pyridazin-3-yl)-N-((3S,4S)-4-fluoropiperidin-3-yl)pyrazin-2-amine] | 5.3 | 0.19 | 0.7 | 0.063 |
| COc1cc2ncc(-c3ccnc(N[C@@H]4CCCNC4)n3)n2cc1C(C)(C)O [Compound 44, (R)-2-(7-methoxy-3-(2-(piperidin-3-ylamino)pyrimidin-4-yl)imidazo[1,2-a]pyridin-6-yl)propan-2-ol] | 0.3 | 0.28 | < 0.5 | 0.042 |
| COc1cc2ncc(-c3ccnc(N[C@H]4CNC[C@@H]4F)n3)n2nc1C1CC1 [Compound 49, 4-(6-cyclopropyl-7-methoxyimidazo[1,2-b]pyridazin-3-yl)-N-((3S,4S)-4-fluoropyrrolidin-3-yl)pyrimidin-2-amine] | 2.6 | 0.26 | 1 | 0.06 |
| COc1cc2ncc(-c3ccnc(N[C@@H]4CCCNC4)n3)n2nc1C1CC1 [Compound 50, (R)-4-(6-cyclopropyl-7-methoxyimidazo[1,2-b]pyridazin-3-yl)-N-(piperidin-3-yl)pyrimidin-2-amine] |  |  | 4 |  |
| COc1cc2ncc(-c3ccnc(N[C@H]4CNCC[C@@H]4F)n3)n2nc1C1CC1 [Compound 51, 4-(6-cyclopropyl-7-methoxyimidazo[1,2-b]pyridazin-3-yl)-N-((3S,4S)-4-fluoropiperidin-3-yl)pyrimidin-2-amine] | 2.4 | 0.22 | 0.6 | 0.11 |
